From patent US20250197420A1, “MACROCYCLIC COMPOUNDS, COMPOSITIONS, AND METHODS OF USING THEREOF” (Sionna Therapeutics Inc., priority 2022, published 2025) come the findings set out here.

Each structure is given as a SMILES string.

Assay [1] addresses T1, Purified recombinant NBD1 (Homo sapiens, UniProt P13569).
T1 construct: Purified recombinant NBD1 was produced using previously described methods; made in house
Kind of assay: Aggregation analysis using differential static light scattering (DSLS): thermal stability of NBD1. Format: binding. Conditions: NBD1 0.2 mg/ml; Tagg of compound well minus average Tagg of DMSO control wells. The method, boiled down:
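ΔTagg is compound-well aggregation temperature minus the DMSO-control mean, each Tagg being the inflection point of light scattering measured by DSLS during a 1 °C/min ramp up to 70 °C. The protein was purified NBD1 (0.2 mg/ml) in pH 7.6 buffer containing 2 mM ATP, 5 mM MgCl2 and 1% glycerol.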

The subject of assay [2] is Primary human bronchial epithelial cells from a ΔF508 homozygous CF donor (CF-HBE cells). Kind of assay: TECC24 recording of CFTR-mediated transepithelial chloride transport, AUC fold over benchmark VX-809 @10 μM. Format: cell-based. The settings on record: 48 hours incubation, AUC of forskolin-stimulated IEQ. The method, boiled down: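 Values are the forskolin-to-inhibitor-172 AUC of equivalent Cl− current, derived from transepithelial voltage and resistance, divided by the VX-809 AUC and binned as A <3, B 3–6, C 6–20. Cells were pre-incubated with compound for 48 h at 36.5 °C; the bath (pH 7.4) received benzamil 10 μM, forskolin 10 μM, then CFTRinh-172 20 μM.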

T1 sequence (P13569 423-646 limits assumed): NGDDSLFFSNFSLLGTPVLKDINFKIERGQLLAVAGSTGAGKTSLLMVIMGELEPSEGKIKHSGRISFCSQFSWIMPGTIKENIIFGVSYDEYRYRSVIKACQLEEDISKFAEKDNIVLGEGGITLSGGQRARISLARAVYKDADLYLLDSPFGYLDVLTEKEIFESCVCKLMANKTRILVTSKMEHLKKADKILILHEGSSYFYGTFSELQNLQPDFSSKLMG

Regarding `O=C(O)CCc1cccc(C2CCCCCNC(=O)OCc3c(c(F)cc4[nH]ccc34)Oc3ccc(F)c(c3)-c3ncc2[nH]3)c1F` (stereo not drawn) [Compound 85, 3-[3-(23,29-Difluoro-13-oxo-14,25-dioxa-3,12,20,31-tetrazapentacyclo[24.3.1.12,5.016,24.017,21]hentriaconta-1(30),2,4,16,18,21,23,26,28-nonaen-6-yl)-2-fluoro-phenyl]propanoic acid], the “DSLS (ΔTagg)” value in assay [1] is “C (a value greater than 10 °C and less than or equal to 25 °C is marked “C”)”. For the same compound, the “TECC (test agent AUC divided by VX-809 AUC)” value in assay [2] is “B (a value between 3 and 6 is marked “B”)”.

For the compound `CC1(c2cccc(CCC(=O)O)c2)CCCCNC(=O)OCCc2c(c(F)cc3[nH]ccc23)Oc2ccc(F)c(c2)-c2ncc1[nH]2` (stereo not drawn) [Compound 86, 3-[3-(23,29-Difluoro-6-methyl-12-oxo-13,25-dioxa-3,11,20,31-tetrazapentacyclo[24.3.1.12,5.016,24.017,21]hentriaconta-1(30),2,4,16(24),17(21),18,22,26,28-nonaen-6-yl)phenyl]propanoic acid], the “DSLS (ΔTagg)” value in assay [1] is “C (a value greater than 10 °C and less than or equal to 25 °C is marked “C”)”. Further, the “TECC (test agent AUC divided by VX-809 AUC)” value in assay [2] is “C (a value between 6 and 20 is marked “C”)”.

As for `CC1CCC(C)(c2cccc(CCC(=O)O)c2)c2cnc([nH]2)-c2cc(ccc2F)Oc2c(F)cc3[nH]ccc3c2CCNC(=O)OC1` (stereo not drawn) [Compound 87, 3-[3-(23,29-Difluoro-6,9-dimethyl-12-oxo-11,25-dioxa-3,13,20,31-tetrazapentacyclo[24.3.1.12,5.016,24.017,21]hentriaconta-1(30),2,4,16(24),17(21),18,22,26,28-nonaen-6-yl)phenyl]propanoic acid], the “DSLS (ΔTagg)” value in assay [1] is “C (a value greater than 10 °C and less than or equal to 25 °C is marked “C”)”. Also, the “TECC (test agent AUC divided by VX-809 AUC)” value in assay [2] is “B (a value between 3 and 6 is marked “B”)”.

For the compound `CC1(C)CCCCC(C)(c2cccc(CCC(=O)O)c2)c2cnc([nH]2)-c2cc(ccc2F)Oc2c(F)cc3[nH]ccc3c2COC(=O)N1` (stereo not drawn) [Compound 88, 3-[3-(23,29-Difluoro-6,11,11-trimethyl-13-oxo-14,25-dioxa-3,12,20,31-tetrazapentacyclo[24.3.1.12,5.016,24.017,21]hentriaconta-1(30),2,4,16,18,21,23,26,28-nonaen-6-yl)phenyl]propanoic acid], in assay [1], the “DSLS (ΔTagg)” value is “C (a value greater than 10 °C and less than or equal to 25 °C is marked “C”)”. Further, the “TECC (test agent AUC divided by VX-809 AUC)” value in assay [2] was “B (a value between 3 and 6 is marked “B”)”.

As for `CC1(C)CCCC(C)(c2cccc(CCC(=O)O)c2)c2cnc([nH]2)-c2cc(ccc2F)Oc2c(F)cc3[nH]ccc3c2CNC(=O)OC1` (stereo not drawn) [Compound 89, 3-[3-(23,29-Difluoro-6,10,10-trimethyl-13-oxo-12,25-dioxa-3,14,20,31-tetrazapentacyclo[24.3.1.12,5.016,24.017,21]hentriaconta-1(30),2,4,16,18,21,23,26,28-nonaen-6-yl)phenyl]propanoic acid], in assay [1], the “DSLS (ΔTagg)” value is “C (a value greater than 10 °C and less than or equal to 25 °C is marked “C”)”. For the same compound, the “TECC (test agent AUC divided by VX-809 AUC)” value in assay [2] was “B (a value between 3 and 6 is marked “B”)”.

On to `CC1(C)CCCC(C)(c2cccc(CCC(=O)O)c2)c2nnc([nH]2)-c2cc(ccc2F)Oc2c(F)cc3[nH]ccc3c2COC(=O)NC1` (stereo not drawn) [Compound 90, 3-[3-(23,29-Difluoro-6,10,10-trimethyl-13-oxo-14,25-dioxa-3,4,12,20,31-pentazapentacyclo[24.3.1.12,5.016,24.017,21]hentriaconta-1(30),2,4,16(24),17(21),18,22,26,28-nonaen-6-yl)phenyl]propanoic acid], for which the “DSLS (ΔTagg)” value in assay [1] is “C (a value greater than 10 °C and less than or equal to 25 °C is marked “C”)”. For the same compound, the “TECC (test agent AUC divided by VX-809 AUC)” value in assay [2] is “B (a value between 3 and 6 is marked “B”)”.

As for `CC1(C)CCCC(C)(c2ccccc2)c2nnc([nH]2)-c2cc(ccc2F)Oc2c(F)cc3[nH]ccc3c2COC(=O)NC1` (stereo not drawn) [Compound 91, 23,29-Difluoro-6,10,10-trimethyl-6-phenyl-14,25-dioxa-3,4,12,20,31-pentazapentacyclo[24.3.1.12,5.016,24.017,21]hentriaconta-1(30),2,4,16(24),17(21),18,22,26,28-nonaen-13-one], in assay [1], the “DSLS (ΔTagg)” value was “B (a value above 5 °C and less than or equal to 10 °C is marked “B”)”. In addition, the “TECC (test agent AUC divided by VX-809 AUC)” value in assay [2] is on record as “A (a TECC value less than 3 is marked “A”)”.

On to `CC1(C)CCC(C)(c2cccc(CCC(=O)O)c2)c2cnc([nH]2)-c2cc(ccc2F)Oc2c(F)cc3[nH]ccc3c2CCOC(=O)NC1` (stereo not drawn) [Compound 92, 3-[3-(23,29-Difluoro-6,9,9-trimethyl-12-oxo-13,25-dioxa-3,11,20,31-tetrazapentacyclo[24.3.1.12,5.016,24.017,21]hentriaconta-1(30),2,4,16(24),17(21),18,22,26,28-nonaen-6-yl)phenyl]propanoic acid], for which the “DSLS (ΔTagg)” value in assay [1] is “C (a value greater than 10 °C and less than or equal to 25 °C is marked “C”)”. For the same compound, the “TECC (test agent AUC divided by VX-809 AUC)” value in assay [2] is “C (a value between 6 and 20 is marked “C”)”.

On to `CC1(C)CCCCC(C)(c2ccccc2)c2cnc([nH]2)-c2cc(ccc2F)Oc2c(F)cc3[nH]ccc3c2COC(=O)N1` (stereo not drawn) [Compound 94, 23,29-Difluoro-6,11,11-trimethyl-6-phenyl-14,25-dioxa-3,12,20,31-tetrazapentacyclo[24.3.1.12,5.016,24.017,21]hentriaconta-1(30),2,4,16,18,21,23,26,28-nonaen-13-one], for which, in assay [1], the “DSLS (ΔTagg)” value is “B (a value above 5 °C and less than or equal to 10 °C is marked “B”)”. Also, the “TECC (test agent AUC divided by VX-809 AUC)” value in assay [2] is listed as “A (a TECC value less than 3 is marked “A”)”.

In the case of `Cn1nc2nc1-c1cc(ccc1F)Oc1c(F)cc3[nH]ccc3c1COC(=O)NC(C)(C)CCCCC2(C)c1ccccc1` (stereo not drawn) [Compound 102, 23,29-difluoro-3,6,11,11-tetramethyl-6-phenyl-14,25-dioxa-3,4,12,20,31-pentazapentacyclo[24.3.1.12,5.016,24.017,21]hentriaconta-1(30),2(31),4,16,18,21,23,26,28-nonaen-13-one], the “DSLS (ΔTagg)” value in assay [1] was “B (a value above 5 °C and less than or equal to 10 °C is marked “B”)”. Besides, the “TECC (test agent AUC divided by VX-809 AUC)” value in assay [2] is “B (a value between 3 and 6 is marked “B”)”.

Regarding `CC(Cc1cccc(C2(C)CCCCC(C)(C)N(C)C(=O)OCc3c(c(F)cc4[nH]ccc34)Oc3ccc(F)c(c3)-c3nc2nn3C)c1)C(=O)O` (stereo not drawn) [Compound 103, 3-[3-(23,29-difluoro-3,6,11,11,12-pentamethyl-13-oxo-14,25-dioxa-3,4,12,20,31-pentazapentacyclo[24.3.1.12,5.016,24.017,21]hentriaconta-1(30),2(31),4,16,18,21,23,26,28-nonaen-6-yl)phenyl]-2-methyl-propanoic acid], in assay [1], the “DSLS (ΔTagg)” value is “C (a value greater than 10 °C and less than or equal to 25 °C is marked “C”)”. In assay [2], the “TECC (test agent AUC divided by VX-809 AUC)” value is reported as “A (a TECC value less than 3 is marked “A”)”.

With `CC1(c2cccc(CCC(=O)O)c2)CCCC(O)CNC(=O)CCc2c(c(F)cc3[nH]ccc23)Oc2ccc(F)c(c2)-c2ncc1[nH]2` (stereo not drawn) [Compound 106, 3-[3-(23,29-Difluoro-10-hydroxy-6-methyl-13-oxo-25-oxa-3,12,20,31-tetrazapentacyclo[24.3.1.12,5.016,24.017,21]hentriaconta-1(30),2,4,16,18,21,23,26,28-nonaen-6-yl)phenyl]propanoic acid], the “DSLS (ΔTagg)” value in assay [1] is “C (a value greater than 10 °C and less than or equal to 25 °C is marked “C”)”. Also, the “TECC (test agent AUC divided by VX-809 AUC)” value in assay [2] is “B (a value between 3 and 6 is marked “B”)”.

Turning to `CC1(c2cccc(CCC(=O)O)c2)CCCC(=O)CNC(=O)CCc2c(c(F)cc3[nH]ccc23)Oc2ccc(F)c(c2)-c2ncc1[nH]2` (stereo not drawn) [Compound 107, 3-[3-(23,29-Difluoro-6-methyl-10,13-dioxo-25-oxa-3,12,20,31-tetrazapentacyclo[24.3.1.12,5.016,24.017,21]hentriaconta-1(30),2,4,16,18,21,23,26,28-nonaen-6-yl)phenyl]propanoic acid], the “DSLS (ΔTagg)” value in assay [1] was “C (a value greater than 10 °C and less than or equal to 25 °C is marked “C”)”. For the same compound, in assay [2], the “TECC (test agent AUC divided by VX-809 AUC)” value is “B (a value between 3 and 6 is marked “B”)”.

On to `CC1(c2cccc(CCC(=O)O)c2)CCCCCC(O)CNC(=O)Cc2c(c(F)cc3[nH]ccc23)Oc2ccc(F)c(c2)-c2ncc1[nH]2` (stereo not drawn) [Compound 108, 3-[3-(24,30-Difluoro-12-hydroxy-6-methyl-15-oxo-26-oxa-3,14,21,32-tetrazapentacyclo[25.3.1.12,5.017,25.018,22]dotriaconta-1(31),2,4,17,19,22,24,27,29-nonaen-6-yl)phenyl]propanoic acid], for which, in assay [1], the “DSLS (ΔTagg)” value was “C (a value greater than 10 °C and less than or equal to 25 °C is marked “C”)”. The “TECC (test agent AUC divided by VX-809 AUC)” value in assay [2] is recorded as “A (a TECC value less than 3 is marked “A”)”.

Regarding `CC1(c2cccc(CCC(=O)O)c2)CCCCCC(=O)CNC(=O)Cc2c(c(F)cc3[nH]ccc23)Oc2ccc(F)c(c2)-c2ncc1[nH]2` (stereo not drawn) [Compound 109, 3-[3-(24,30-Difluoro-6-methyl-12,15-dioxo-26-oxa-3,14,21,32-tetrazapentacyclo[25.3.1.12,5.017,25.018,22]dotriaconta-1(31),2,4,17,19,22,24,27,29-nonaen-6-yl)phenyl]propanoic acid], the “DSLS (ΔTagg)” value in assay [1] was “C (a value greater than 10 °C and less than or equal to 25 °C is marked “C”)”. Moreover, the “TECC (test agent AUC divided by VX-809 AUC)” value in assay [2] was “B (a value between 3 and 6 is marked “B”)”.
